The test system of data set [1] is vasomotor symptoms of patients treated with tamoxifen. Briefly: Separate uncontrolled experiences to control vasomotor symptoms of patients treated with tamoxifen. As to conditions: given to patients treated with tamoxifen. The class given is in vivo, women.
In data set [2] the test system is hot flushes among breast cancer survivors under tamoxifen adjuvant therapy.
Another data set relates to invasive breast cancer. As to conditions: cited from earlier work.
The subject of data set [3] is breast cancer survivors women. Description: Clinical practice: 1,600 breast cancer survivors treated with tamoxifen, adverse effects. In kind it is in vivo. The source says:
The improvements in recurrence-free survival and in overall survival have been between the ranges reported by the published literature. However, into the total treated group, we have found only one case of endometrial cancer, well differentiated and of small size (table 2).
Many of these women had recently stopped HRT, at the time the diagnosis of breast cancer was made.

The mark [4] stands for this setting: usual-care n = 46 (six months), intervention n = 90 (end of study), tamoxifen 20 mg/day, BNO 1055 20 mg twice a day.
Setting [5] is: usual-care n = 46, intervention n = 90.

Entries after “also recorded” stand apart in the source; their conditions may differ.

The text below walks through data of patent publication US20040202736A1, “Method of ameliorating side-effects of SERMs” (Pharmaton S.A., priority 2003, published 2004).

With `CC(=O)[C@H]1CC[C@H]2[C@@H]3CCC4=CC(=O)CC[C@]4(C)[C@H]3CC[C@]12C` [progesterone], the “control of vasomotor symptoms / severe hot flushes” value in data set [1] is listed as “very unsatisfactory results; also recorded: failed to reach a satisfactory control”.

Take `Clc1cccc(Cl)c1N=C1NCCN1` [clonidine]: in data set [1], the “control of vasomotor symptoms / severe hot flushes” value is “very unsatisfactory results; also recorded: failed to reach a satisfactory control”.

For `CC/C(=C(\c1ccccc1)c1ccc(OCCN(C)C)cc1)c1ccccc1` [Tamoxifen, Z-2-[4-(1,2-diphenyl-1-butenyl)phenoxy]-N,N-dimethyl-ethylamine], the “decline of bimonthly reported numbers of hot flushes from baseline” value in data set [2] (baseline vs six months of tamoxifen adjuvant therapy, severe or moderate hot flushes, not significant, P=0.71) was in the range of 5 to 9%. Also, in data set [2] (during the study), the “minor adverse events, number” value is on record as “seven” and the serious events entry is given as “No serious events”. In data set [2] (setting [4]), the “Hot Flushes Severe, number of patients” value amounted to 34 and the “Hot Flushes Severe, proportion of patients” value was determined as 73.9%. In data set [2] (setting [5]), the “Hot Flushes Moderate, number of patients” value was determined as 12 and the “Hot Flushes Moderate, proportion of patients” value came to 26.1%. In the data set on invasive breast cancer (20 mg/day, 69 months of follow-up), the “reduction of the risk of invasive breast cancer” value is reported as 49%. Besides, the “effect on ER-negative tumors” value in the data set on invasive breast cancer (20 mg/day) is on record as “no effect”. Also, the “incidence of adverse events, including endometrial cancer” value in the data set with invasive breast cancer (women younger than 50) is listed as “no increased incidence”. The “patients who reported hot flushes” value in data set [3] (postmenopausal patients, tamoxifen 20 mg/day) is listed as 25%. Besides, in data set [3] (premenopausal women, mostly severe, tamoxifen 20 mg/day), the “patients who reported hot flushes” value is listed as “up to 74%”. Besides, in data set [3] (tamoxifen 20 mg/day), the withdrawal is given as < 5%. Besides, in data set [3] (total treated group (1,600), well differentiated and of small size), the “cases of endometrial cancer” value was “one”.

For the compound Vitamin E, the “control of vasomotor symptoms / severe hot flushes” value in data set [1] is “very unsatisfactory results; also recorded: failed to reach a satisfactory control”.
